SMILES strings stand for the structures. Activity calls are given as the source filed them. No cut-off for these calls is given here. Numbered stars: 1 amine (or outer) side, 2 acyl side, 3 side chain; on linkers, the order of the positions; unused ones are H or OH. Square brackets hold non-standard residues; d marks the D form. Peptide text beside a SMILES is read from it. * marks the point of attachment. Acetyl(2-(piperazin-1-yl)) = O=C(CN1CCNCC1)*; azaβ3hArg = N=C(N)NCCCN(CC(=O)[*:2])N[*:1]; Hydrazinoacetyl = O=C(CNN[*:1])[*:2]; X5 = O=C(CN(Cc1ccccc1)N[*:1])[*:2]; X9 = O=C(CN(CC1CCCCC1)N[*:1])[*:2]; X1 = O=C(CN(CC(O)CO)N[*:1])[*:2]; X3 = CCCCN(CC(=O)[*:2])N[*:1]; X4 = CCCN(CC(=O)[*:2])N[*:1]; X6 = O=C(CN(CCO)N[*:1])[*:2]; X2 = NC(=O)CN(Cc1ccccc1)N*; X8 = CN(CC(=O)[*:2])N[*:1]; X7 = O=C(CN1CCCN1)*

Data set [1] concerns the target T1, Pyroglutamylated RF-amide peptide receptor (Homo sapiens, UniProt Q96P65).
T1 sequence (Q96P65 whole entry): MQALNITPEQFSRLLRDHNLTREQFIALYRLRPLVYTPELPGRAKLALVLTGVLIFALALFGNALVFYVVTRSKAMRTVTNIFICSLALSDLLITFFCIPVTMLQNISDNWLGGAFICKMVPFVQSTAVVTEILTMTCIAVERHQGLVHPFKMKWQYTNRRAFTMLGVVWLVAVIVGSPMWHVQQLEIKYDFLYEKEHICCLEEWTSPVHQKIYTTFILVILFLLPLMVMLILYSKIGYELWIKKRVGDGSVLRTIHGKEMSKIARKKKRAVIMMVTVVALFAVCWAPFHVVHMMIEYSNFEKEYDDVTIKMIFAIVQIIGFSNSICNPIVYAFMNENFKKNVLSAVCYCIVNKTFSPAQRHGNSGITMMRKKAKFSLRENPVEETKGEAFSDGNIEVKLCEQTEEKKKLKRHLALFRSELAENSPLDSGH
The experiment in a line: Agonist activity at human GPR103 expressed in CHO cells co-expressing Galpha16 assessed as increase in intracellular calcium level measured for 2 mins by fluorimetry. Type of data set: functional, cell-based. In general terms: Calcium assays in cells follow changes in intracellular calcium, usually with a dye or a luminescent sensor.

Data set [2] concerns the target T1, Pyroglutamylated RF-amide peptide receptor. Description: Antagonist activity at human GPR103 expressed in CHO cells co-expressing Galpha16 assessed as inhibition of human 26RFa-induced increase in intracellular calcium level by fluorimetry. Type of data set: functional, cell-based.
Data set [3] can be described thus: Half life in human serum by RP-HPLC. Type of data set: ADME, cell-free.
Data set [4] addresses T1, Pyroglutamylated RF-amide peptide receptor. The experiment in a line: Displacement of [125I]26RFa from human GPR103 expressed in HEK293 cells incubated for 1 h by gamma counter based method. Type of data set: cell-based.
Data set [5] relates to Mus musculus. The experiment in a line: Orexigenic effect in Swiss albino CD1 mouse at 1.2 nmol, icv measured after every 30 mins for 60 to 90 mins. Type of data set: functional, organism-based.
Data set [6] relates to Mus musculus. The experiment in a line: Orexigenic effect in icv dosed Swiss albino CD1 mouse assessed as cumulative food intake measured after 2 hrs. Type of data set: functional.
The subject of data set [7] is Mus musculus. The experiment in a line: Orexigenic effect in Swiss albino CD1 mouse at 0.012 to 1.2 nmol, icv measured for 30 mins. The class given is functional, organism-based.
Data set [8] relates to Mus musculus. Description: Orexigenic effect in Swiss albino CD1 mouse at 0.012 to 1.2 nmol, icv after 30 mins. The class given is functional, organism-based.
Data set [9] relates to Serum. Description: Compound degradation in human serum assessed as breakdown of N-terminal region incubated for 15 mins by RP-HPLC. The class given is ADME, cell-free. Particulars: 0.25 h.
The test system of data set [10] is Mus musculus. Description: Orexigenic effect in icv dosed Swiss albino CD1 mouse measured after every 30 mins. The class given is functional, organism-based.
Data set [11] concerns Serum. The experiment in a line: Compound degradation in human serum assessed as breakdown of N-terminal region incubated for 2 mins by RP-HPLC. The class given is ADME, cell-free.
The subject of data set [12] is Mus musculus. Description: Orexigenic effect in Swiss albino CD1 mouse at 1.2 nmol, icv measured after every 30 mins for 90 to 120 mins. The class given is functional, organism-based.
Data set [13] relates to Serum. Description: Ratio of t1/2 of compound to t1/2 of 26RFa in human serum by RP-HPLC. Type of data set: ADME, cell-free.

A word on the EC50: it is the concentration at which the effect is half-maximal. With `N=C(N)NCCC[C@H](NC(=O)[C@H](Cc1ccccc1)NC(=O)CN(CC(O)CO)NC(=O)[C@H](Cc1ccccc1)NC(=O)CN1CCCN1)C(=O)N[C@@H](Cc1ccccc1)C(N)=O` (some centres not stated) (X7-F[X1]FRF-NH2), the EC50 in [1] is 0.382 µM.

For `N=C(N)NCCC[C@H](NC(=O)[C@H](Cc1ccccc1)NC(=O)[C@H](CO)NC(=O)[C@H](Cc1ccccc1)NC(=O)CNC(=O)CNN)C(=O)N[C@@H](Cc1ccccc1)C(N)=O` (Hydrazinoacetyl-GFSFRF-NH2), the EC50 in data set [1] stood at 0.429 µM.

On to `NCC(=O)NCC(=O)N[C@@H](Cc1ccccc1)C(=O)NN(CC(=O)N[C@@H](Cc1ccccc1)C(=O)N[C@@H](CCCN=C(N)N)C(=O)N[C@@H](Cc1ccccc1)C(N)=O)CC1CCCCC1` (H-GGF[X9]FRF-NH2), for which the EC50 in data set [1] was found to be 1.37 µM.

As usually defined, the IC50 is the point on the concentration scale where inhibition reaches its midpoint. With `NCC(=O)NCC(=O)N[C@@H](Cc1ccccc1)C(=O)N[C@@H](CO)C(=O)NN(CC(=O)N[C@@H](CCCN=C(N)N)C(=O)N[C@@H](Cc1ccccc1)C(N)=O)Cc1ccccc1` (H-GGFS[X5]RF-NH2), in data set [2], the IC50 was over 10 µM. Moreover, in data set [1], the EC50 was over 10 µM.

In the case of `CCCN(CC(=O)N[C@@H](Cc1ccccc1)C(=O)N[C@@H](CCCNC(=N)N)C(=O)N[C@@H](Cc1ccccc1)C(N)=O)NC(=O)[C@H](Cc1ccccc1)NC(=O)CN1CCNCC1` ({Acetyl(2-(piperazin-1-yl))}-F[X4]FRF-NH2), the EC50 in data set [1] was found to be 0.164 µM.

The half-life is how long it takes for the measured level to halve. A low value points to rapid decline. In data set [3], `CC(C)C[C@H](NC(=O)[C@H](CC(N)=O)NC(=O)CNC(=O)[C@H](CC(C)C)NC(=O)[C@@H]1CCCN1C(=O)CNC(=O)[C@H](CO)NC(=O)[C@@H](N)[C@@H](C)O)C(=O)N[C@@H](C)C(=O)N[C@@H](CCC(=O)O)C(=O)N[C@@H](CCC(=O)O)C(=O)N[C@@H](CC(C)C)C(=O)N[C@@H](CC(N)=O)C(=O)NCC(=O)N[C@@H](Cc1ccc(O)cc1)C(=O)N[C@@H](CO)C(=O)N[C@@H](CCCNC(=N)N)C(=O)N[C@@H](CCCCN)C(=O)N[C@@H](CCCCN)C(=O)NCC(=O)NCC(=O)N[C@@H](Cc1ccccc1)C(=O)N[C@@H](CO)C(=O)N[C@@H](Cc1ccccc1)C(=O)N[C@@H](CCCNC(=N)N)C(=O)N[C@@H](Cc1ccccc1)C(N)=O` (H-TSGPLGNLAEELNGYSRKKGGFSFRF-NH2) returned a half-life of 6.9 min. Further, the IC50 in data set [4] is 0.00126 µM.

In the case of `N=C(N)NCCC[C@H](NC(=O)[C@H](Cc1ccccc1)NC(=O)[C@H](CO)NC(=O)[C@H](Cc1ccccc1)NC(=O)CNC(=O)CN)C(=O)N[C@@H](Cc1ccccc1)C(N)=O` (H-GGFSFRF-NH2), the result in the data set on Mus musculus [5] and with Mus musculus [7] was Active. The Activity in the data set with Mus musculus [6] amounted to 1833 mg. In data set [3], this molecule gave a half-life of 11.2 min. The IC50 in data set [4] was 8.73 µM. Moreover, the outcome in the data set on Mus musculus [8] was inactive.

As for `NCC(=O)NCC(=O)N[C@@H](Cc1ccccc1)C(=O)NN(CC(=O)N[C@@H](Cc1ccccc1)C(=O)N[C@@H](CCCN=C(N)N)C(=O)N[C@@H](Cc1ccccc1)C(N)=O)CC(O)CO` (some centres not stated) (H-GGF[X1]FRF-NH2), the half-maximal effective concentration (EC50) in data set [1] was 0.341 µM.

As to `N=C(N)NCCC[C@H](NC(=O)[C@H](Cc1ccccc1)NC(=O)CN(CCO)NC(=O)[C@H](Cc1ccccc1)NC(=O)CNC(=O)CN)C(=O)N[C@@H](Cc1ccccc1)C(N)=O` (H-GGF[X6]FRF-NH2), in data set [1], the EC50 is 1.09 µM.

In the case of `CN(CC(=O)N[C@@H](Cc1ccccc1)C(=O)N[C@@H](CCCN=C(N)N)C(=O)N[C@@H](Cc1ccccc1)C(N)=O)NC(=O)[C@H](Cc1ccccc1)NC(=O)CNC(=O)CN` (H-GGF[X8]FRF-NH2), the EC50 in data set [1] is 1.1 µM.

Turning to `NCC(=O)NCC(=O)N[C@@H](Cc1ccccc1)C(=O)N[C@@H](CO)C(=O)N[C@@H](Cc1ccccc1)C(=O)N[C@@H](CCCN=C(N)N)C(=O)NN(CC(N)=O)Cc1ccccc1` (H-GGFSFR-X2), the half-maximal inhibitory concentration (IC50) in data set [2] was over 10 µM. Besides, the concentration giving a half-maximal response (EC50) in data set [1] is over 10 µM.

`N=C(N)NCCC[C@H](NC(=O)[C@H](Cc1ccccc1)NC(=O)CN(CC(O)CO)NC(=O)[C@H](Cc1ccccc1)NC(=O)CN1CCNCC1)C(=O)N[C@@H](Cc1ccccc1)C(N)=O` (some centres not stated) ({Acetyl(2-(piperazin-1-yl))}-F[X1]FRF-NH2): the Stability entry in the data set with Serum [9] and with Serum [11] was “Stable” in each case. In addition, the Activity entry in the data set with Mus musculus [10] is “Dose-dependent effect”; in the data set on Mus musculus [6], 1873 mg. For the same molecule, the result with Mus musculus [12] was Active. For the same molecule, the half-life in data set [3] came to 35.6 min. This molecule had a 50% inhibitory concentration (IC50) in data set [4] of 1.99 µM. Also, the concentration for a half-maximal effect (EC50) in [1] stood at 0.0936 µM. For the same molecule, the Ratio in the data set with Serum [13] is 5.

For `NC(=O)[C@H](Cc1ccccc1)NC(=O)[C@H](CCCN=C(N)N)NC(=O)[C@H](Cc1ccccc1)NC(=O)[C@H](CO)NC(=O)[C@H](Cc1ccccc1)NC(=O)CN1CCNCC1` ({Acetyl(2-(piperazin-1-yl))}-FSFRF-NH2), in data set [1], the EC50 was found to be 0.138 µM.

In the case of `NCC(=O)NCC(=O)NN(CC(=O)N[C@@H](CO)C(=O)N[C@@H](Cc1ccccc1)C(=O)N[C@@H](CCCN=C(N)N)C(=O)N[C@@H](Cc1ccccc1)C(N)=O)Cc1ccccc1` (H-GG[X5]SFRF-NH2), the EC50 in [1] was 2.34 µM.

Consider `CCCCN(CC(=O)N[C@@H](Cc1ccccc1)C(=O)N[C@@H](CCCNC(=N)N)C(=O)N[C@@H](Cc1ccccc1)C(N)=O)NC(=O)[C@H](Cc1ccccc1)NC(=O)CNC(=O)CN` (H-GGF[X3]FRF-NH2), for which the EC50 in data set [1] was determined as 29.8 µM.

As for `CCCN(CC(=O)N[C@@H](Cc1ccccc1)C(=O)N[C@@H](CCCN=C(N)N)C(=O)N[C@@H](Cc1ccccc1)C(N)=O)NC(=O)[C@H](Cc1ccccc1)NC(=O)CNC(=O)CN` (H-GGF[X4]FRF-NH2), the half-maximal inhibitory concentration (IC50) in data set [2] was over 10 µM. For the same molecule, in [1], the EC50 was over 10 µM.

In turn, `N=C(N)NCCC[C@H](NC(=O)[C@H](Cc1ccccc1)NC(=O)[C@H](CO)NC(=O)[C@H](Cc1ccccc1)NC(=O)CNNC(=O)CN)C(=O)N[C@@H](Cc1ccccc1)C(N)=O` (H-G[Hydrazinoacetyl]FSFRF-NH2) returned a 50% inhibitory concentration (IC50) in data set [4] of 2.99 µM. In [1], the 50% effective concentration (EC50) is 0.136 µM.

`NCC(=O)NCC(=O)N[C@@H](Cc1ccccc1)C(=O)N[C@@H](CO)C(=O)N[C@@H](Cc1ccccc1)C(=O)NN(CCCN=C(N)N)CC(=O)N[C@@H](Cc1ccccc1)C(N)=O` (H-GGFSF[azaβ3hArg]F-NH2): the 50% inhibitory concentration (IC50) in data set [2] was over 10 µM. In [1], the EC50 is over 10 µM.

The values above are taken from ChEMBL document CHEMBL2169738, “Rational design of a low molecular weight, stable, potent, and long-lasting GPR103 aza-β3-pseudopeptide agonist” (J Med Chem, 2012).
